Measured values reported in US20220054561A1, “LACHNOSPIRACEAE MITIGATES AGAINST RADIATION-INDUCED HEMATOPOIETIC/GASTROINTESTINAL INJURY AND DEATH, AND PROMOTES CANCER CONTROL BY RADIATION” (priority 2018, published 2022).

How the values were obtained:
Assay type in all cases: in vivo, mouse
SPF mice = assay: Tryptophan metabolites treatment and lethal radiation; settings: lethal radiation, monitored 30 days
Experimental: Metabolite profiles were measured in fecal samples of AM-Ctrl and ES mice at Day 290 post TBI. Total ion chromatogram (TIC) metabolomic cloudplot (p<0.01) (FIG. 14A) and PCA score plot (14B) show distinct metabolites separation between these two groups. […] In FIG. 14D, metabolic network graphs (MetaMapp) were generated to integrate the biochemical pathways and chemical relationships of all detected metabolites. Identified metabolites are represented by circle nodes, with lower transparency indicating lower p-values from Welch's t-test. Lighter grey nodes denote metabolites with higher abundance in ES group; darker grey nodes denote those higher in AM-Ctrl group. Solid grey lines connecting distinct metabolites symbolize KEGG reactant pair links; dashed grey lines symbolize chemical similarity with a Tanimoto coefficient score >0.7. Tryptophan metabolites are highlighted by a large shadow (labelled), while other metabolite families are distinguished by separate shadowed areas. FIG. 14E is a schematic of tryptophan metabolites treatment. Survival rates (FIG. 14F) and clinical scores (FIG. 14G) were monitored for 30 days. Error bars show SEM, *p<0.05, **p<0.01, ***p<0.001 determined by log-rank (Mantel Cox) test (FIG. 14F) and Mann-Whitney test for area under the curve (AUC) (FIG. 14G). […]

SPF C57BL/6 mice [1] = assay: Acetate, butyrate or propionate supplemented water for 8 weeks followed by lethal dose TBI
Source text: FIG. 11A is a schematic of short chain fatty acids (SCFAs) treatment. Survival rates (FIG. 11B) and clinical scores (FIG. 11C) were monitored for 30 days. Femurs and spleens were stained for H&E and quantified for BM cellularity and spleen EMH scores (FIG. 11D). White pulp (WP, black dash circles), red pulp (RP, area between black solid lines), and megakaryocytes (black arrows) are shown. […] Total CMP, GMP and MEP percentages of Lin^− cells are shown in the right histogram. Representative images are shown. Mucus layer is indicated by area between dash lines and crypt length is indicated by double-headed arrow. Mucus layer thickness and crypt length were quantified. Error bars show SEM, *p<0.05, **p<0.01, *** p<0.001 determined by log-rank (Mantel Cox) test (B), Mann-Whitney test for area under the curve (AUC) (C) and Student's t test (D, E, F).
SPF C57BL/6 mice were treated with acetate, butyrate or propionate supplemented water for 8 weeks respectively, followed by a lethal dose TBI (FIG. 11A). […] To examine the effect of propionate on the gastrointestinal system, Alcian blue and periodic acid-Schiff (AB/PAS) staining of all intracellular mucin glycoproteins within goblet cells was completed.

SPF C57BL/6 mice [2] = assay: Butyrate contained water for 8 weeks followed by total body irradiation; settings: butyrate water 8 weeks, TBI; control recipients 43%
Experimental: Butyrate production was determined by Mass Spectrometry from Non-TBI controls versus LL-TBI survivors (FIG. 7A), Control Recipients versus Survivor Recipients from dirty cage sharing expt. as shown in FIG. 2A (FIG. 7B), Control Recipients versus Survivor Recipients from FMT in GF mice expt. as shown in FIG. 4A (FIG. 7C). FIG. 7D includes a schematic of butyrate treatment of 6-8 weeks SPF C57BL/6 mice. After 8 weeks of butyrate treatment, recipients received total body irradiation. Survival rates (FIG. 7E), clinical scores (FIG. 7F), body weight changes (FIG. 7G) and body temperatures (FIG. 7H) were monitored for 30 days post TBI. (Control Recipients, n=14; Butyrate Recipients, n=16).
It is well established that Clostridiales and Lachnospiraceae bacterial groups produce short chain fatty acids (SCFAs) via fermentation of dietary polysaccharides^32-34. SCFAs especially butyrate, which is the most commonly studied SCFA, are important substrates for maintaining intestinal epithelium and play a role in regulating immune system and inflammatory response. Increased abundance of Lachnospiraceae is expected to enhance the capability to produce SCFAs. To validate this hypothesis, the concentrations of lactate, propionate, isobutyrate and butyrate were detected in each individual Lachnospiraceae strain within the disclosed 23 stains pool. […]

O=Cc1c[nH]c2ccccc12 [I3A, indole-3-carboxaldehyde]
survival rates (SPF mice): around 75%

O=C(O)c1cc(=O)c2ccccc2[nH]1 [KYNA, kynurenic acid]
survival rates (SPF mice): around 75%

CC(=O)O [acetate]
protection (survival, clinical scores) (SPF C57BL/6 mice [1]; supplemented water 8 weeks, lethal dose TBI): slight protection

CCCC(=O)O [butyrate]
thirty-day survival rate (SPF C57BL/6 mice [2]): 68%

CCC(=O)O [propionate]
bone marrow cellularity (SPF C57BL/6 mice [1]; H&E femurs): Elevated bone marrow cellularity
mucus thickness and crypt length (SPF C57BL/6 mice [1]; colon AB/PAS staining, versus control): significantly increased
total Sca1−cKit+ progenitor cells (GMP, CMP, MEP) in BM (SPF C57BL/6 mice [1]; flow cytometry, versus control recipients): significant increase
Thirty-day survival rates (SPF C57BL/6 mice [1]; supplemented water 8 weeks, lethal dose TBI, control group 28%): 79%
clinical scores (SPF C57BL/6 mice [1]; versus control group): lower clinical scores
